# Laboratory results as given in ChEMBL document CHEMBL1221328, “Relationships between structures of hydroxyflavones and their antioxidative effects” (Bioorg Med Chem Lett, 2010).
# Assay: Antioxidant activity assessed as […] radical scavenging activity
# Assay type: functional
# Parameters: concentration or dose not given beside the values
row,Compound,Activity
1,O=c1cc(-c2ccc(O)c(O)c2)oc2cc(O)ccc12,84.9%
2,O=c1c(O)c(-c2cc(O)c(O)c(O)c2)oc2cc(O)ccc12,79.9%
3,O=c1c(O)c(-c2ccccc2)oc2cc(O)cc(O)c12,52.5%
4,O=c1cc(-c2ccc(O)cc2)oc2cc(O)c(O)c(O)c12,69.9%
5,O=c1cc(-c2ccc(O)c(O)c2)oc2c(O)c(O)ccc12,87.4%
6,O=c1c(O)c(-c2ccccc2O)oc2cc(O)cc(O)c12,86.5%
7,O=c1c(O)c(-c2ccc(O)c(O)c2)oc2c(O)c(O)cc(O)c12,85.4%
8,O=c1cc(-c2cccc(O)c2)oc2c(O)c(O)ccc12,87.1%
9,O=c1c(O)c(-c2ccc(O)c(O)c2)oc2ccc(O)cc12,86.7%
10,O=c1c(O)c(-c2ccccc2O)oc2c(O)c(O)ccc12,83.1%
11,O=c1c(O)c(-c2ccc(O)cc2)oc2cc(O)cc(O)c12,77.2%
12,O=c1cc(-c2cccc(O)c2O)oc2ccc(O)cc12,87.1%
13,O=c1cc(-c2ccccc2O)oc2c(O)c(O)ccc12,79.9%
14,O=c1c(O)c(-c2ccccc2O)oc2ccccc12,69.3%
15,O=c1c(O)c(-c2cccc(O)c2O)oc2ccc(O)cc12,86.6%
16,O=c1cc(-c2cc(O)cc(O)c2)oc2ccccc12,61.8%
17,O=c1c(O)c(-c2ccc(O)c(O)c2)oc2cc(O)ccc12,85.2%
18,O=c1c(O)c(-c2cc(O)c(O)c(O)c2)oc2cc(O)cc(O)c12,79.5%
19,O=c1cc(-c2ccccc2)oc2c(O)c(O)cc(O)c12,58.8%
20,O=c1c(O)c(-c2ccc(O)c(O)c2)oc2cc(O)cc(O)c12,87.8%
21,O=c1c(O)c(-c2ccccc2O)oc2ccc(O)cc12,86.8%
22,O=c1cc(-c2cc(O)c(O)c(O)c2)oc2cc(O)ccc12,88.8%
23,O=c1c(O)c(-c2ccccc2)oc2cccc(O)c12,58.3%
24,O=c1c(O)c(-c2ccc(O)c(O)c2)oc2ccccc12,85.7%
25,O=c1cc(-c2ccc(O)c(O)c2)oc2ccc(O)cc12,83.9%
26,O=c1c(O)c(-c2ccc(O)cc2O)oc2cc(O)cc(O)c12,81.5%
27,O=c1cc(-c2cc(O)c(O)c(O)c2)oc2cc(O)cc(O)c12,88.1%
28,O=c1cc(-c2ccc(O)c(O)c2)oc2cc(O)c(O)cc12,86.4%
29,O=c1c(O)c(-c2cc(O)c(O)cc2O)oc2ccc(O)cc12,85.6%
30,O=c1c(O)c(-c2ccc(O)cc2O)oc2ccc(O)cc12,86.3%
